Results taken from US20050009103A1, “Methods of precise molecular-level determination of ligand-receptor interactions and designing selective drug compounds based on said interactions” (priority 2003, published 2005).
Like-named read-outs stand apart in the source and are kept apart here.

How the values were obtained:
[1] = molecular target: Mouse muscle embryonic nAChR, Thr α150, Leu9′Ser mutation in M2 of the β subunit (Mus musculus, UniProt P02716+P04756+P04760+P09690, L285S); assay: cell-based
Method: (§1) Unnatural amino acids were incorporated into the nAChR using in vivo nonsense suppression methods, and mutant receptors were evaluated electrophysiologically (Dougherty, D. A. (2000) Curr. Opin. Chem. Biol. 4:645-652).
(§2) In studies of weak agonists and/or receptors with diminished binding capability, it is necessary to introduce another mutation that independently decreases EC50. This was accomplished via a Leu-to-Ser mutation in the β subunit at a site known as 9′ in the M2 transmembrane region of the receptor. This M2-β9′ site is almost 50 Å from the binding site, and previous work has shown that a Leu9′Ser mutation lowers the EC50 by a factor of roughly 10 without altering trends in EC50 values (Beene, D. L., et al. (2002) Biochem. 41:10262-9; and Kearney, P. C., et al. (1996) Mil. Pharmacol. 50:1401-1412). […] It is important to note that the EC50 value is not a binding constant, but a composite of equilibria for both binding and gating.
To evaluate this possibility, the backbone amide at this position was converted to an ester by replacing Thr α150 with the analog α-hydroxy threonine (Tah) using the nonsense suppression methodology (FIG. 9a). Converting an amide carbonyl to an ester carbonyl weakens the hydrogen bonding ability of the oxygen, an effect that has been estimated to be worth ˜[…] (Koh, J. T., et al. (1997) Biochem. 36:11314-22). […]

[2] = system: Mouse muscle embryonic nAChR, Tah α150 (ester carbonyl of Trp α149), Leu9′Ser mutation in M2 of the β subunit; type: cell-based
Method: as §1, §2
(§3) To evaluate this possibility, the backbone amide at this position was converted to an ester by replacing Thr α150 with the analog α-hydroxy threonine (Tah) using the nonsense suppression methodology (FIG. 9a). Converting an amide carbonyl to an ester carbonyl weakens the hydrogen bonding ability of the oxygen, an effect that has been estimated to be worth ˜[…] (Koh, J. T., et al. (1997) Biochem. 36:11314-22).
(§4) Stage VI oocytes of Xenopus laevis were employed. Oocyte recordings were made 24 to 48 h post injection in two-electrode voltage clamp mode using the OpusXpress™ 6000A (Axon Instruments, Union City, Calif.). Oocytes were superfused with Ca^2+-free ND96 solution at flow rates of 1 ml/min, 4 ml/min during drug application and 3 ml/min during wash. Holding potentials were −60 mV. Data were sampled at 125 Hz and filtered at 50 Hz. Drug applications were 15 s in duration. […] All drugs were prepared in sterile ddi water for dilution into calcium-free ND96. Dose-response data were obtained for a minimum of 10 concentrations of agonists and for a minimum of 7 cells. Dose-response relations were fitted to the Hill equation to determine EC50 and Hill coefficient. EC50 for individual oocytes were averaged to obtain the reported values.
(§5) Synthetic amino acids and α-hydroxy acids were conjugated to the dinucleotide dCA and ligated to truncated 74 nt tRNA as previously described in England, P. M., et al. (1999) supra; and Nowak, M. W., et al. (1998) Methods Enzymol. 293:504-529. Deprotection of amino acyl tRNA was carried out by photolysis immediately prior to co-injection with mRNA, as described in Nowak M. W., et al. (1998) supra; and Li, L. T., et al. (2001) Chem. Biol. 8:47-58. Typically, 25 ng of tRNA were injected per oocyte along with mRNA in a total volume of 50 nl/cell. mRNA was prepared by in vitro runoff transcription using the Ambion (Austin, Tex.) mMessage mMachine kit. Mutation to the amber stop codon at the site of interest was accomplished by standard means and was verified by sequencing through both strands. For nAChR suppression, a total of 4.0 ng of mRNA was injected in the subunit ratio of 10:1:1:1 α:β:γ:δ. In all cases, the β subunit contained a Leu9′Ser mutation, as discussed above. Mouse muscle embryonic nAChR in the pAMV vector was used. In addition, the α subunits contain an HA epitope in the M3-M4 cytoplasmic loop for biochemical studies. […] As a negative control for suppression, truncated 74 nt or truncated tRNA ligated to dCA was co-injected with mRNA in the same manner as fully charged tRNA. […] The positive control for suppression involved wild-type recovery by co-injection with 74 nt tRNA ligated to dCA-Thr or dCA-Trp.

[3] = molecular target: T1, Mouse muscle embryonic nAChR, Tah α150 (ester carbonyl of Trp α149), Leu9′Ser mutation in M2 of the β subunit (Mus musculus, UniProt P02716+P04756+P04760); type: cell-based; settings: read-out: EC50, Tah at α150
T1 construct: other: ± standard error of the mean; backbone ester; β Leu9′Ser; Mouse muscle embryonic nAChR in the pAMV vector was used
Method: as §1, §2, §3, §4, §5

[4] = system: Mouse muscle embryonic nAChR, 4,5,6,7-F4-Trp at α149, Leu9′Ser mutation in M2 of the β subunit; assay: Two-electrode voltage clamp of Xenopus oocytes expressing nAChR, F4-Trp at α149; type: cell-based
Method: as §1, §2
Stage VI oocytes of Xenopus laevis were employed. Oocyte recordings were made 24 to 48 h post injection in two-electrode voltage clamp mode using the OpusXpress™ 6000A (Axon Instruments, Union City, Calif.). Oocytes were superfused with Ca^2+-free ND96 solution at flow rates of 1 ml/min, 4 ml/min during drug application and 3 ml/min during wash. Holding potentials were −60 mV. Data were sampled at 125 Hz and filtered at 50 Hz. […]

Mouse muscle embryonic nAChR, Thr α150, Leu9′Ser mutation in M2 of the β subunit, sequence (P04756 21-457): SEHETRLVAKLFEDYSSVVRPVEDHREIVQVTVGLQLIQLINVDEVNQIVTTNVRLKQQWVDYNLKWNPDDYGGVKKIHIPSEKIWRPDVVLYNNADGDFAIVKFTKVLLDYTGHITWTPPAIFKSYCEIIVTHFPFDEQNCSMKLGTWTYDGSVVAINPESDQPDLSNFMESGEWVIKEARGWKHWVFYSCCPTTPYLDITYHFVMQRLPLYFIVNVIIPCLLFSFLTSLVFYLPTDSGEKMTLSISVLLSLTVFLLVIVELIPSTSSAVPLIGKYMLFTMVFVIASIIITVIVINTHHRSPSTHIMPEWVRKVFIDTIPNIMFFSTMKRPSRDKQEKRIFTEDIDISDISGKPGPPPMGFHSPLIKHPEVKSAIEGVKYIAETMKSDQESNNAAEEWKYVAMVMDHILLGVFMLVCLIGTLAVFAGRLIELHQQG
Mouse muscle embryonic nAChR, Thr α150, Leu9′Ser mutation in M2 of the β subunit, sequence (P09690 24-501 L285S): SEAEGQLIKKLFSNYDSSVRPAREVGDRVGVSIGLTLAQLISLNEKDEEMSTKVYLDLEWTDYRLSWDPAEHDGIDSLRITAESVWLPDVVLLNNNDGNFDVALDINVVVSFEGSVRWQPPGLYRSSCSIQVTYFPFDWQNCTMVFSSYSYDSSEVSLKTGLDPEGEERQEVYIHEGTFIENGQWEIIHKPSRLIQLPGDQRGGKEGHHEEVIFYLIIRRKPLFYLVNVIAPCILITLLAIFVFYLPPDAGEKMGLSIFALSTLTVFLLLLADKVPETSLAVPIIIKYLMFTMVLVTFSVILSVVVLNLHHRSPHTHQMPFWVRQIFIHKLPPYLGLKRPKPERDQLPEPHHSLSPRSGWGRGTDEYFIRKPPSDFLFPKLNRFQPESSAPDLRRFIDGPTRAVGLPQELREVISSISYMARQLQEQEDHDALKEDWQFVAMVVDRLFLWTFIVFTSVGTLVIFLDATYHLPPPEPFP
Mouse muscle embryonic nAChR, Thr α150, Leu9′Ser mutation in M2 of the β subunit, sequence (P04760 23-519): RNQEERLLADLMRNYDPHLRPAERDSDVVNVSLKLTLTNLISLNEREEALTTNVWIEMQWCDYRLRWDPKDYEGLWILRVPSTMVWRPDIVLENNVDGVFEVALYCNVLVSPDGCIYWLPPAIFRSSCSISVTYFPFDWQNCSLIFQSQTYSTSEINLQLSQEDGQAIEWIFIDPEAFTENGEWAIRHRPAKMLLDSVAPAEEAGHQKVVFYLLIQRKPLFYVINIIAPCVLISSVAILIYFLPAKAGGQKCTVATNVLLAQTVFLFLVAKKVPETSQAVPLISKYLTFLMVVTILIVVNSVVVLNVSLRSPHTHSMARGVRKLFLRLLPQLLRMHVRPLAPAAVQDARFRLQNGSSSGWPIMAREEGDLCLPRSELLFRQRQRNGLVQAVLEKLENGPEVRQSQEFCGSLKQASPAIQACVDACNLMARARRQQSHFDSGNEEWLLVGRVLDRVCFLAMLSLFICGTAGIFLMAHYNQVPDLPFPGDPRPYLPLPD
Mouse muscle embryonic nAChR, Thr α150, Leu9′Ser mutation in M2 of the β subunit, sequence (P02716 25-520): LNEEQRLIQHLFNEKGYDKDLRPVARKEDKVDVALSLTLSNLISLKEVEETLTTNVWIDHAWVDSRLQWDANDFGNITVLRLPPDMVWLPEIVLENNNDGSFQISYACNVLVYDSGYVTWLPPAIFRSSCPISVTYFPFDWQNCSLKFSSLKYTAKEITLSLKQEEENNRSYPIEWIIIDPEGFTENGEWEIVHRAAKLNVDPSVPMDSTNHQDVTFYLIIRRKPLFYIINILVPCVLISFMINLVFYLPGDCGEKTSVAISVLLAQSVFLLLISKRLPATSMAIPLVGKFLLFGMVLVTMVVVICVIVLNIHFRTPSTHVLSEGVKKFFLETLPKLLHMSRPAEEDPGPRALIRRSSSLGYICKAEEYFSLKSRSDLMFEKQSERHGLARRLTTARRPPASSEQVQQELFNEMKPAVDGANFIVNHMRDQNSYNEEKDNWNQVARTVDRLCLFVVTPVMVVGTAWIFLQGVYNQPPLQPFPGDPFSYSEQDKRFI
T1 sequence (P02716 25-520 limits assumed, change not shown): as the sequence (P02716 25-520) above
T1 sequence (P04756 21-457 limits assumed, change not shown): as the sequence (P04756 21-457) above
T1 sequence (P04760 23-519 limits assumed, change not shown): as the sequence (P04760 23-519) above

SMILES	EC50 [1]	Tah/Thr (fold increase in EC50 upon ester substitution) [2]	drop in hydrogen bonding strength [2]	energy corresponding to drop in hydrogen bonding strength [2]	EC50 [3]	drop in hydrogen bonding strength ([2]; Tah/Thr ratio multiplied by generic 3.3-fold decrease seen with ACh)	energy corresponding to drop in hydrogen bonding strength ([2]; from corrected fold change)	Epi concentrations required by 4,5,6,7-F4-Trp α149 mutant (dose-response unsuccessful) [4]
CN1CCCC1c1cccnc1 (centres unmarked) [Nic, nicotine]	57 ± 2 µM	1.6	~5 fold	1.0 kcal/mol	92 ± 4 µM	–	–	–
Clc1ccc(C2CC3CCC2N3)cn1 (racemic) [Epi, epibatidine]	–	–	–	–	–	~12 fold	1.5 kcal/mol	above 100 μM
